Experimental data from patent US20240109880A1 (Insilico Medicine IP Limited, priority 2021, published 2024).

Target: KAT6A (Homo sapiens (Human), UniProt Q92794)
Assay: KAT6A Biochemical Assay (radiometric 384-well, [3H]-Ac-CoA, biotinylated H4(1-30) peptide)
Conditions: 5 nM KAT6A enzyme solution (2×), 60 min reaction at room temperature
Experimental: Inhibition of KAT6A enzymatic activity by test compounds was determined using a radiometric 384-well format assay. A 10-point serial dilution of the test compounds were conducted in DMSO and then a volume of 200 nL was transferred into 384-well assay plate by Echo (Labcyte). 10 μL of 2× enzyme solution (5 nM KAT6A (Active Motif) in assay buffer (50 mM Tris-HCl pH 8.0, 50 mM KCl, 0.1 mM EDTA, 5% glycerol, 1 mM DTT)) was dispensed into assay plate except for low control wells, in which 10 μL of assay buffer was transferred. The plate was incubated at room temperature for 15 min before addition of 10 μL of 2×[^3H]-acetyl coenzyme A (Ac-CoA) and substrate peptide mix solution (500 nM (KAT6A) [^3H]-Ac-CoA (PerkinElmer) and 800 nM (KAT6A) biotinylated H4(1-30) peptide (GL Biochem) in assay buffer) to each well to start reaction. The plate was incubated at room temperature for 60 min (KAT6A), and then the reaction was stopped by adding 10 μL of stop solution (cold Ac-CoA (Cayman) in 1× assay buffer). 25 μL of reaction in each well was transferred to Flashplate (PerkinElmer) and incubated for another 1 hour at room temperature. The plate was read on Microbeta and the inhibition percentage of each compound treated well was calculated based on the equation in h %=(Max−sample)/(Max−Min)*100 where Max is signal from high control wells with enzyme, and Min is signal from low control wells with assay buffer only. The in h % data were further fit in XL-Fit to obtain IC50 values using a 4-parameter logistic (4PL) sigmoidal curve model.

Chain of KAT6A (Q92794 whole entry): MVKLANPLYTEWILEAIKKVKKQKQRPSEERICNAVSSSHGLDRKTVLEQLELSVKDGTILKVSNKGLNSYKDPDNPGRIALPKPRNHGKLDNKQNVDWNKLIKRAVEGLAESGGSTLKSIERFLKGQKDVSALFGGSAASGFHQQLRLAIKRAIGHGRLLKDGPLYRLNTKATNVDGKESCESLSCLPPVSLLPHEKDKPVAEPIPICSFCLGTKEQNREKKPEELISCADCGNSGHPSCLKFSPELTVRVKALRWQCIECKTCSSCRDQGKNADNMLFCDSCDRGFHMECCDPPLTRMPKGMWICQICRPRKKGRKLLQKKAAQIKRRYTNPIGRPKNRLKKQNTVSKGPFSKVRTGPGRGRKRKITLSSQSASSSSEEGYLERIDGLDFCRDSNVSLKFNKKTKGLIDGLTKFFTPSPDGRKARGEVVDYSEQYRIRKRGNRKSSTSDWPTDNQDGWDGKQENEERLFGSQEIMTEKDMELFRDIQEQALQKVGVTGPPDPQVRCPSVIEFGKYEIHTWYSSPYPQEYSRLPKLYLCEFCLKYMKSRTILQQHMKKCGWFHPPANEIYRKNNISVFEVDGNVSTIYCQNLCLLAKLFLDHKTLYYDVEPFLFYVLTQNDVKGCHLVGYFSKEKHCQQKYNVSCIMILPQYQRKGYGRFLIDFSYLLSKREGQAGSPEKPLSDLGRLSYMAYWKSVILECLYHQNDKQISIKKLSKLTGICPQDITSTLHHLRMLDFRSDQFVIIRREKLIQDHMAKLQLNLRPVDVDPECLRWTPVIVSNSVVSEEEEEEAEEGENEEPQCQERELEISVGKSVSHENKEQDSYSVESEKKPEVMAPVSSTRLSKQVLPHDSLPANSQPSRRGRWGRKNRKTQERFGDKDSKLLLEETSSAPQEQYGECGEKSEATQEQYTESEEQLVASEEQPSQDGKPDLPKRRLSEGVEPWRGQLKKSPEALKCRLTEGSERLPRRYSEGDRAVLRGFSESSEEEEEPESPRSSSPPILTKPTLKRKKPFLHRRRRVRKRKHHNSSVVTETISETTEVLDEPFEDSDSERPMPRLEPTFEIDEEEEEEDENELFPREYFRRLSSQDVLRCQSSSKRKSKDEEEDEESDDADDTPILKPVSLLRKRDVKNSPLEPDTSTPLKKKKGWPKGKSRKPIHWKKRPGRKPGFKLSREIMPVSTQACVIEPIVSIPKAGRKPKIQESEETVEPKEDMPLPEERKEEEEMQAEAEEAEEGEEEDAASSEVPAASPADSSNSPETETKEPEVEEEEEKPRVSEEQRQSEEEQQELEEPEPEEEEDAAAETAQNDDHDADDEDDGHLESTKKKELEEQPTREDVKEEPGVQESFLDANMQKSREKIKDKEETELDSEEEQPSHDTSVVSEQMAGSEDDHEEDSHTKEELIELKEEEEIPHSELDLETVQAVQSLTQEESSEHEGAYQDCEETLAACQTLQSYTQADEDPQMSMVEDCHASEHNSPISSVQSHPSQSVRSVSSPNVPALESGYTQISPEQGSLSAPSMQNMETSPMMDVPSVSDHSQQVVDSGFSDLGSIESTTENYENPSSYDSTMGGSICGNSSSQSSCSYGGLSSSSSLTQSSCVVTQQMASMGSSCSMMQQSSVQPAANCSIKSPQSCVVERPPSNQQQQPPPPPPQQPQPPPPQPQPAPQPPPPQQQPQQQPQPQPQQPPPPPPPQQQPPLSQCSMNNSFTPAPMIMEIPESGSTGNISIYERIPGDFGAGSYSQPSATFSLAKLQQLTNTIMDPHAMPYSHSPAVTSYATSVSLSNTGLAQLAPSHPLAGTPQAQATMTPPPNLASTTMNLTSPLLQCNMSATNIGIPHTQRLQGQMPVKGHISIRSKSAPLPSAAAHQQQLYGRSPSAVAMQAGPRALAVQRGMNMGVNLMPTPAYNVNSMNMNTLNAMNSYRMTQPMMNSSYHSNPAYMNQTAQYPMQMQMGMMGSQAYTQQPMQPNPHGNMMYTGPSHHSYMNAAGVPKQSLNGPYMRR

| IC50 | SMILES |
| --- | --- |
| 10 to 100 nM | COc1cccc(OC)c1S(=O)(=O)Nc1noc2cc(Cn3cccn3)cc(OCC(F)(F)F)c12 [Compound 4, N-(6-((1H-pyrazol-1-yl)methyl)-4-(2,2,2-trifluoroethoxy)benzo[d]isoxazol-3-yl)-2,6-dimethoxybenzenesulfonamide] |
| < 10 nM | COc1cc(C)nc(OC)c1S(=O)(=O)Nc1noc2cc(Cn3cccn3)cc(OC)c12 [Compound 11, N-(6-((1H-pyrazol-1-yl)methyl)-4-methoxybenzo[d]isoxazol-3-yl)-2,4-dimethoxy-6-methylpyridine-3-sulfonamide] |
| < 10 nM | COc1ccccc1S(=O)(=O)Nc1noc2cc(Cn3cccn3)c3c(c12)OCCC3 [Compound 15, N-(5-((1H-pyrazol-1-yl)methyl)-3,4-dihydro-2H-chromeno [8,7-d]isoxazol-9-yl)-2-methoxybenzenesulfonamide] |
| 10 to 100 nM | COc1ncccc1S(=O)(=O)Nc1noc2cc(Cn3cccn3)c3c(c12)OCCC3 [Compound 16, N-(5-((1H-pyrazol-1-yl)methyl)-3,4-dihydro-2H-chromeno [8,7-d]isoxazol-9-yl)-2-methoxypyridine-3-sulfonamide] |

The next lines start with the compound.

| SMILES | IC50 |
| --- | --- |
| COc1cccc(OC)c1S(=O)(=O)Nc1noc2cc(Cn3cccn3)cnc12 [Compound 1, N-(6-((1H-pyrazol-1-yl)methyl)isoxazolo[4,5-b]pyridin-3-yl)-2,6-dimethoxybenzenesulfonamide] | 10 to 1000 nM |
| COc1ccnc(OC)c1S(=O)(=O)Nc1noc2cc(Cn3cccn3)cc(OC)c12 [Compound 2, N-(6-((1H-pyrazol-1-yl)methyl)-4-methoxybenzo[d]isoxazol-3-yl)-2,4-dimethoxypyridine-3-sulfonamide] | 10 to 100 nM |
| COc1cccc(OC)c1S(=O)(=O)Nc1noc2cc(Cn3cccn3)cc(OC(F)F)c12 [Compound 3, N-(6-((1H-pyrazol-1-yl)methyl)-4-(difluoromethoxy)benzo[d]isoxazol-3-yl)-2,6-dimethoxybenzenesulfonamide] | < 10 nM |
| COc1ccnc(OC)c1S(=O)(=O)Nc1noc2cc(Cn3cccn3)cc(OC(F)F)c12 [Compound 5, N-(6-((1H-pyrazol-1-yl)methyl)-4-(difluoromethoxy)benzo[d]isoxazol-3-yl)-2,4-dimethoxypyridine-3-sulfonamide] | 10 to 100 nM |
| COc1ccccc1S(=O)(=O)Nc1noc2cc(Cn3cccn3)cc(OC(F)F)c12 [Compound 6, N-(6-((1H-pyrazol-1-yl)methyl)-4-(difluoromethoxy)benzo[d]isoxazol-3-yl)-2-methoxybenzenesulfonamide] | 10 to 100 nM |
| O=S(=O)(Nc1noc2cc(Cn3cccn3)cc(OC(F)F)c12)c1ccccc1OC(F)(F)F [Compound 7, N-(6-((1H-pyrazol-1-yl)methyl)-4-(difluoromethoxy)benzo[d]isoxazol-3-yl)-2-(trifluoromethoxy)benzenesulfonamide] | 10 to 1000 nM |
| COc1cccc(OC)c1S(=O)(=O)Nc1noc2cc(Cn3cccn3)cc(OC(F)(F)F)c12 [Compound 8, N-(6-((1H-pyrazol-1-yl)methyl)-4-(trifluoromethoxy)benzo[d]isoxazol-3-yl)-2,6-dimethoxybenzenesulfonamide] | 10 to 100 nM |
| COc1ccccc1S(=O)(=O)Nc1noc2cc(Cn3cccn3)cc(OC(F)(F)F)c12 [Compound 12, N-(6-((1H-pyrazol-1-yl)methyl)-4-(trifluoromethoxy)benzo [d]isoxazol-3-yl)-2-methoxybenzenesulfonamide] | 10 to 100 nM |
| COc1cccc(OC)c1S(=O)(=O)Nc1noc2nc(Cn3cccn3)cc(OC)c12 [Compound 13, N-(6-((1H-pyrazol-1-yl)methyl)-4-methoxyisoxazolo[5,4-b]pyridin-3-yl)-2,6-dimethoxybenzenesulfonamide] | > 1000 nM |
| COc1ccnc(OC)c1S(=O)(=O)Nc1noc2cc(Cn3cccn3)c3c(c12)OCCC3 [Compound 17, N-(5-((1H-pyrazol-1-yl)methyl)-3,4-dihydro-2H-chromeno [8,7-d]isoxazol-9-yl)-2,4-dimethoxypyridine-3-sulfonamide] | < 10 nM |
